# Source: patent US8440688B2, “Compounds, formulations and methods for reducing skin wrinkles, creasing and sagging” (Galderma Laboratories Inc., priority 2007, dated 2013)
# Test system: severe wrinkling on their face
# Assay: Topical application of COL-118 to facial wrinkles (Example 18)
# Assay type: in vivo, human
# Details: middle-aged person, topical 0.2% COL-118
# Method: A middle-aged person has severe wrinkling on their face. They apply 0.2% COL-118 (an α2 adrenergic receptor agonist supplied by CollaGenex Pharmaceuticals, Inc., Newtown, Pa.). Wrinkling is noticeably diminished within 5 minutes by casual observation. After about 10 minutes, nearly all the wrinkles are gone. The effect lasts at least 8 hr.
smiles,measurement,value
Brc1c(NC2=NCCN2)ccc2nccnc12 [COL-118],Duration of the wrinkle-reducing effect,at least 8 hr
same,Time after which nearly all the wrinkles are gone,about 10 minutes
same,Time until wrinkling is noticeably diminished (casual observation),≤ 5 min
